Assay results reported in patent US20210330611A1, “THERAPY FOR NEUROLOGICAL DISEASES/DISORDERS” (priority 2020, published 2021).
Where a name gives a salt, the structure may show the parent alone. Read-outs that look alike come from different tables or passages of the source.

Tests used:
[1] = tested on: fibrin-induced microglia activation; assay: Image-based assay of fibrin-induced microglia activation (HTS and dose response); type: cell-based, rat; settings: for inhibition at 10 µM: Rattus norvegicus, Microglia, read-out: Fibrin % inhibition
[2] = tested on: LPS-induced microglia activation; assay: Image-based assay of LPS-induced microglia activation (HTS and dose response); type: cell-based, rat; settings: for inhibition at 10 µM: Rattus norvegicus, Microglia, read-out: LPS % inhibition
[3] = tested on: fibrin- and LPS-induced microglia activation; assay: cells; type: cell-based, rat
[4] = tested on: primary rat microglia; assay: Cell toxicity (dead cells, size <150 μm2) in LPS assay; settings: for IC50: read-out: Cell Toxicity IC50 (uM) [LPS assay]
[5] = tested on: primary rat microglia; assay: Cell toxicity (dead cells, size <150 μm2) in coated fibrin (cFib) assay; settings: for IC50: read-out: Cell Toxicity IC50 (uM) [cFib assay];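 as to Fibrin % cell toxicity: share of dead cells sized under 150 µm2 at 10 µM in fibrin-stimulated microglia HTS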
[6] = primary HTS, 10 μM, fibrin-stimulated primary microglia
[7] = primary HTS, 10 μM, LPS-stimulated primary microglia
[8] = primary HTS, 10 μM, LPS assay, dead cells size <150 μm2
[9] = primary HTS, 10 μM, fibrin assay, dead cells size <150 μm2
[10] = primary microglia HTS, fibrin stimulation, increased cell size (>800 μm^2) as marker of activation
[11] = 48 h, primary microglia HTS, LPS stimulation, increased cell size (>800 μm^2) as marker of activation
[12] = quadrant by fibrin and LPS inhibition in HTS of 1907 compounds
[13] = primary microglia HTS, LPS stimulation, decreased size (<150 μm^2) as marker of toxicity
[14] = primary microglia HTS, fibrin stimulation, decreased size (<150 μm^2) as marker of toxicity
[15] = primary microglia HTS, 10 μM, fibrin-stimulated, cell size >800 μm^2 as marker of activation
[16] = primary microglia HTS, 10 μM, LPS-stimulated, cell size >800 μm^2 as marker of activation
[17] = HTS of 1907 compounds, quadrant by fibrin and LPS inhibition
[18] = primary microglia HTS, 10 μM, LPS assay, cell size <150 μm^2 as marker of toxicity
[19] = primary microglia HTS, 10 μM, fibrin assay, cell size <150 μm^2 as marker of toxicity
[20] = primary microglia HTS, LPS stimulation, increased cell size (>800 μm^2) as marker of activation
[21] = primary microglia HTS, fibrin stimulation, activation = cell size >800 μm2
[22] = 48 h, primary microglia HTS, LPS stimulation, activation = cell size >800 μm2
[23] = primary microglia HTS, LPS stimulation, toxicity = cell size <150 μm2
[24] = primary microglia HTS, fibrin stimulation, toxicity = cell size <150 μm2

## CO/N=C(\C(=O)N[C@@H]1C(=O)N2C(C(=O)O)=C(C[N+]3(C)CCCC3)CS[C@H]12)c1csc(N)n1 [Cefepime Hydrochloride]
[1]; [6]
  inhibition at 10 µM: 7%
[2]; [7]
  inhibition at 10 µM: 16%
[3]; primary HTS, 10 μM
  Quadrant (FIG. 5b): Q4
[4]; [8]
  LPS % cell toxicity: 0%
[5]; [9]
  Fibrin % cell toxicity: 1%

## CN1C[C@H](CNC(=O)OCc2ccccc2)C[C@@H]2c3cccc4c3c(cn4C)C[C@H]21 [Metergoline]
[1]; [10]
  inhibition at 10 µM: -12%
[2]; [11]
  inhibition at 10 µM: 16%
[3]; [12]
  Quadrant (FIG. 5b): Q4
[4]; [13]
  LPS % cell toxicity: 0%
[5]; [14]
  Fibrin % cell toxicity: 1%

## C[C@H](CCC(=O)O)[C@H]1CC[C@H]2[C@@H]3[C@@H](O)C[C@@H]4C[C@H](O)CC[C@]4(C)[C@H]3CC[C@]12C [Ursodeoxycholic Acid]
[1]; [15]
  Fibrin % inhibition: −18%
[2]; [16]
  LPS % inhibition: 1%
[3]; [17]
  Quadrant (FIG. 5b): Q4
[4]; [18]
  LPS % cell toxicity: 0%
[5]; [19]
  Fibrin % cell toxicity: 1%

## O=[N+]([O-])OCC(CO[N+](=O)[O-])O[N+](=O)[O-] [Nitroglycerin]
[1]; [10]
  inhibition at 10 µM: 2%
[2]; [11]
  inhibition at 10 µM: 17%
[3]; [12]
  Quadrant (FIG. 5b): Q4
[4]; [13]
  LPS % cell toxicity: 1%
[5]; [14]
  Fibrin % cell toxicity: 1%

## Gentamicin sulfate [reference compound]
[1]
  Fibrin Selectivity: 5
  Fibrin Selectivity (LOG10): 0.71
[1]; Table 1, dose response 0.001-20 μM, triplicates, primary rat microglia, 48 h, read-out: Fibrin IC50
  IC50: 4 µM
[1]; Table 3, read-out: Fibrin IC50 (uM) (Suppl. Table 7)
  IC50: 4 µM
[1]; dose response, fibrin-induced microglia activation, read-out: Fibrin IC50
  IC50: 4 µM
[1]; fibrin-induced microglia activation, dose response, read-out: Fibrin IC50 (uM) (Suppl. Table 7)
  IC50: 4 µM
[1]; [10]
  Fibrin % inhibition: 105%
[2]; LPS-induced microglia activation, dose response, read-out: LPS IC50 (uM) (Suppl. Table 7)
  IC50: > 20 µM
[2]; Table 1, dose response 0.001-20 μM, triplicates, primary rat microglia, 48 h, read-out: LPS IC50
  IC50: > 20 µM
[2]; Table 3, read-out: LPS IC50 (uM) (Suppl. Table 7)
  IC50: > 20 µM
[2]; dose response, LPS-induced microglia activation, read-out: LPS IC50
  IC50: > 20 µM
[2]; [20]
  LPS % inhibition: 101%
[3]; HTS hit classification
  Hit: HIT (Hits were defined as molecules that exhibited greater than 50% inhibition of either fibrin or LPS activation)
[3]; [17]
  Quadrant (FIG. 5b): Q2
[3]; Table 1, screen at 10 μM
  Quadrant (FIG. 5b): Q2
[3]; Table 3
  Cherry-picked Hit (Suppl. Table 7): HIT (Hits were defined as molecules that exhibited greater than 50% inhibition of either fibrin or LPS activation)
[3]; Table 3, screen at 10 μM
  Quadrant (FIG. 5b): Q2
[3]; hit classification in microglia HTS
  Cherry-picked Hit (Suppl. Table 7): HIT (Hits were defined as molecules that exhibited greater than 50% inhibition of either fibrin or LPS activation)
[3]; [12]
  Quadrant (FIG. 5b): Q2
[4]; [13]
  LPS % cell toxicity: 4%
[4]; LPS assay
  IC50: > 20 µM
[4]; Table 3
  IC50: > 20 µM
[5]; [14]
  Fibrin % cell toxicity: 1%
[5]; Table 3
  IC50: > 20 µM
[5]; cFib assay
  IC50: > 20 µM

## O=C(O)c1ccccc1OP(=O)(O)O [Fosfosal]
[1]; [21]
  inhibition at 10 µM: -29%
[2]; [22]
  inhibition at 10 µM: 16%
[3]; [12]
  Quadrant (FIG. 5b): Q4
[4]; [23]
  LPS % cell toxicity: 1%
[5]; [24]
  Fibrin % cell toxicity: 0%

## CC(C)(C)CC(C)(C)c1ccc(O)c(Cc2ccc(Cl)cc2Cl)c1 [Clofoctol]
[1]; [6]
  inhibition at 10 µM: -26%
[2]; [7]
  inhibition at 10 µM: 2%
[3]; primary HTS, 10 μM
  Quadrant (FIG. 5b): Q4
[4]; [8]
  LPS % cell toxicity: 0%
[5]; [9]
  Fibrin % cell toxicity: 0%

## CN1CCc2c(c3ccccc3n2Cc2ccccc2)C1.CN1CCc2c(c3ccccc3n2Cc2ccccc2)C1.O=S(=O)(O)c1cccc2c(S(=O)(=O)O)cccc12 [Mebhydrolin Naphthalenesulfonate]
[1]; [10]
  Fibrin % inhibition: 4%
[2]; [20]
  LPS % inhibition: 17%
[3]; [12]
  Quadrant (FIG. 5b): Q4
[4]; [13]
  LPS % cell toxicity: 0%
[5]; [14]
  Fibrin % cell toxicity: 1%

## C[C@H](CS)C(=O)N1CCC[C@H]1C(=O)O [Captopril]
[1]; [6]
  inhibition at 10 µM: -11%
[2]; [7]
  inhibition at 10 µM: 12%
[3]; primary HTS, 10 μM
  Quadrant (FIG. 5b): Q4
[4]; [8]
  LPS % cell toxicity: 1%
[5]; [9]
  Fibrin % cell toxicity: 1%

## Nc1c(CC(=O)O)cccc1C(=O)c1ccc(Br)cc1 [Bromfenac]
[1]; [6]
  inhibition at 10 µM: -12%
[2]; [7]
  inhibition at 10 µM: 0%
[3]; primary HTS, 10 μM
  Quadrant (FIG. 5b): Q4
[4]; [8]
  LPS % cell toxicity: 0%
[5]; [9]
  Fibrin % cell toxicity: 1%

## CCOC(=O)Nc1nc2ccccc2[nH]1 [Lobendazole]
[1]; [21]
  inhibition at 10 µM: -4%
[2]; [22]
  inhibition at 10 µM: 20%
[3]; [12]
  Quadrant (FIG. 5b): Q4
[4]; [23]
  LPS % cell toxicity: 0%
[5]; [24]
  Fibrin % cell toxicity: 0%

## C[C@H](CCC(=O)O)[C@H]1CC[C@H]2[C@@H]3[C@@H](O)C[C@@H]4C[C@H](O)CC[C@]4(C)[C@H]3CC[C@]12C [Ursodiol]
[1]; [15]
  Fibrin % inhibition: −21%
[2]; [16]
  LPS % inhibition: 18%
[3]; [17]
  Quadrant (FIG. 5b): Q4
[4]; [18]
  LPS % cell toxicity: 0%
[5]; [19]
  Fibrin % cell toxicity: 0%

## CC(C)(C)C(=O)C(Oc1ccc(Cl)cc1)n1ccnc1 (stereo not shown) [Climbazole]
[1]; [6]
  inhibition at 10 µM: -10%
[2]; [7]
  inhibition at 10 µM: 1%
[3]; primary HTS, 10 μM
  Quadrant (FIG. 5b): Q4
[4]; [8]
  LPS % cell toxicity: 0%
[5]; [9]
  Fibrin % cell toxicity: 1%
